Laboratory results reported in patent US20250127898A1, “PHOTODYNAMIC THERAPY AND DIAGNOSIS” (RMW CHO Group Limited, priority 2021, published 2025).
Where a name gives a salt, the structure may show the parent alone. Read-outs that look alike come from different tables or passages of the source.

Key:
[1] = tested on: Human ovarian cancer cell line SKOV3; test: Phototoxicity in SKOV3 cells after 660 nm laser or LED activation (AlamarBlue viability); assay type: cell-based
Method: Samples were stored at 4° C. protected from light. […] All data are shown as mean±SD (where appropriate). […] Laser and LED exposure induce an equivalent response in relation to phototoxicity. Following activation, cells were cultured for a further 24 hours. Media was then replaced with fresh media containing AlamarBlue, and % viable cells remaining assessed as above. Controls included cells treated with reduced chlorin analogues but not activated by laser light; cells without reduced chlorin analogue treatment but with laser light; and untreated controls. All measurements were made in quadruplicate.

[2] = tested on: Human ovarian cancer cell line SKOV3; test: Inherent cytotoxicity (dark toxicity) in SKOV3 cells (AlamarBlue viability); assay type: cell-based
Method: Photosensitizers (e.g. chlorin analogue, chlorin e4 disodium (provided by Advanced Molecular Technologies, Scoresby) or Talaporfin sodium (purchased from Focus Bioscience cat #HY-16477-5MG)) were resuspended in 100% dimethylsulfoxide (DMSO) at a concentration of 5.5 mM. Samples were stored at 4° C. protected from light.
All data are shown as mean±SD (where appropriate).
Untreated cells were used as a control. […] All measurements were made in quadruplicate.

[3] = tested on: indomethacin-induced gastric lesions; conditions: rats; background statement; cited from earlier work
[4] = tested on: TAA- or CCl4-induced acute liver injuries; conditions: mice; background statement; cited from earlier work
C57BL/6 mice = test: Acute toxicity after intraperitoneal injection into mice; assay type: in vivo; conditions: 5 mg/kg intraperitoneal, observed for 30 mins, prepared with 1% PVP in PBS+20 mM HEPES
Method: To assess acute toxicity, reduced phyllochlorin or chlorin e4 disodium (each prepared with 1% PVP in PBS+20 mM HEPES) were administered at a dose of 5 mg/kg to C57BL/6 mice by intraperitoneal injection.

[5] = Estimated pKa of the carboxylic acid; assay type: physicochemical; conditions: estimate, no measurement described
Excerpt: As PBS buffer (pH 7.4) is used in the experiments and the carboxylic acid in reduced phyllochlorin (and the same carboxy group in other related chlorins) is estimated to have a pKa of less than 5, reduced phyllochlorin in the PBS buffer will exist predominantly as the sodium and potassium salts with very little to no free acid.

[6] = Homo sapiens, SK-OV-3, light or radiation study, SKOV3 cells, 24 hours uptake, 660 nm LED panel, 50 mW/cm^2 for 5 mins (15 J/cm^2), values marked *, read-out: Phototoxicity μM (IC90), measured by LED
[7] = SKOV3 cells, 24 hours uptake, 660 nm laser, 50 mW/cm^2 for 5 mins (15 J/cm^2), viability 24 hours after activation, read-out: Phototoxicity μM (IC90)
[8] = SKOV3 cells, 24 hours incubation, no light activation

## CCC1=C(C)c2cc3[nH]c(cc4nc(c(C)c5cc(C)c(cc1n2)[nH]5)[C@@H](CCC[P+](c1ccccc1)(c1ccccc1)c1ccccc1)[C@@H]4C)c(C)c3CC [Compound 27, Reduced Phyllochlorin 3-triphenylphosphonium Propyl Iodide]
[1]; Homo sapiens, SK-OV-3, light or radiation study, SKOV3 cancer cells, laser or LED, read-out: phototoxicity IC90
  IC90: ≤ 0.01 µM
[1]; [6]
  IC90: 0.0055 µM
[2]; human, 24 h
  Dark toxicity μM (IC10): 1.326 µM

## CCC1=C(C)c2cc3[nH]c(cc4nc(c(C)c5cc(C)c(cc1n2)[nH]5)[C@@H](CCC(=O)N[C@@H](CCCCN)C(=O)N(C)C)[C@@H]4C)c(C)c3CC [Compound 31, Reduced Phyllochlorin N-Lysyl Dimethylamide Propylamide Hydrochloride]
[1]; [6]
  IC90: 0.011 µM
[2]; human, 24 h
  Dark toxicity μM (IC10): 8.850 µM

## CCC1=C(C)c2cc3[nH]c(cc4nc(c(C)c5[nH]c(cc1n2)c(C)c5C(=O)O)[C@@H](CCC(=O)O)[C@@H]4C)c(C)c3CC [Compound 36, Reduced Chlorin e4]
[1]; Homo sapiens, SK-OV-3, light or radiation study, SKOV3 cells, 24 hours uptake, 660 nm laser, 50 mW/cm^2 for 5 mins (15 J/cm^2), viability 24 hours after activation, read-out: Phototoxicity μM (IC90)
  IC90: 4.36 µM
[2]; human, 24 h
  Dark toxicity μM (IC10): 12.200 µM

## CCC1=C(C)c2cc3[nH]c(cc4nc(c5c6[nH]c(cc1n2)c(C)c6C(=O)OC5)[C@@H](CCC(=O)O)[C@@H]4C)c(C)c3CC [Compound 39, Reduced Chlorin K]
[1]; [6]
  IC90: 0.141 µM
[2]; human, 24 h
  Dark toxicity μM (IC10): 6.613 µM

## CCC1=C(C)c2cc3[nH]c(cc4nc(c5c6[nH]c(cc1n2)c(C)c6C(=O)OC5)[C@@H](CCC(=O)N(C)CCCS[C@@H]1O[C@H](CO)[C@@H](O)[C@H](O)[C@H]1O)[C@@H]4C)c(C)c3CC [Compound 40, Reduced Chlorin K β-D-1-thioglucose-N-methylpropylamide]
[1]; [6]
  IC90: 0.229 µM
[2]; human, 24 h
  Dark toxicity μM (IC10): 3.222 µM

## C=Cc1c(C)c2cc3nc(c(C)c4[nH]c(cc5nc(cc1[nH]2)C(C)=C5CC)c(C)c4C(=O)O)[C@@H](CCC(=O)O)[C@@H]3C [chlorin e4, Chlorin e4]
[3]
  effect against indomethacin-induced gastric lesions: protective effect
[4]
  effect against TAA- or CCl4-induced acute liver injuries: protective effect

## Phyllochlorin free acid [reference compound]
[1]; [7]
  IC90: 0.43 µM
[2]; [8]
  Dark toxicity μM (IC10): 13.50 µM

## Phyllochlorin sodium salt [reference compound]
[1]; [7]
  IC90: 0.35 µM
[2]; [8]
  Dark toxicity μM (IC10): 21.96 µM

## Reduced Phyllochlorin Methyl Ester [Compound 6]
[1]; [7]
  IC90: 0.371 µM
[2]
  Dark toxicity μM (IC10): 11.650 µM

## Reduced Phyllochlorin N-(2-(2-(2-picolinylethoxy)ethoxy)ethyl)-N-methyl-3-amide chloride [Compound 28]
[1]; SKOV3 cells, 24 hours uptake, 660 nm LED panel, 50 mW/cm^2 for 5 mins (15 J/cm^2), values marked *, read-out: Phototoxicity μM (IC90), measured by LED
  IC90: 0.0326 µM
[2]; [8]
  Dark toxicity μM (IC10): 1.510 µM

## Reduced Phyllochlorin N-(2-(2-hydroxyethoxy)ethyl)-N-methylpropylamide [Compound 7]
[1]; [7]
  IC90: 0.036 µM
[2]
  Dark toxicity μM (IC10): 26.100 µM

## Reduced Phyllochlorin [Compound 1]
[1]; [7]
  IC90: 0.176 µM
[1]; SKOV3 cells, vs phyllochlorin free acid / phyllochlorin sodium salt
  increase in phototoxicity of meso-compound compared to non-meso analogue: 2.4 fold
[2]
  Dark toxicity compared to non-meso analogue: largely unaffected
  Dark toxicity μM (IC10): 10.450 µM
C57BL/6 mice
  clinical signs of acute toxicity (squinting, piloerection, loss of motility, general behaviour): safe for injection
[5]
  pKa of the carboxylic acid (estimated): less than 5
